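Dose response: 5 concentrations. Exposure: 48 h. Format: 96-well plates. Endpoint: linear interpolation; highest concentration if not reached. GI50 is the concentration that inhibits growth by half.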 Active and inactive are the calls of the source. Rule as the data show it: active = GI50 up to about 1.1 µM and inactive = higher.
What was measured:
Test in all cases: NCI anticancer screen, dose series, 48 h
[1] = system: NCI-H226
[2] = system: HCC 2998
[3] = system: EKVX
[4] = system: COLO 205
[5] = system: SK-MEL-28
[6] = system: HL-60
[7] = system: HOP-92
[8] = system: MCF7
[9] = system: K562
[10] = system: SW-620
[11] = system: CAKI-1
[12] = system: HCT-15
[13] = system: RXF 393
[14] = system: SF-539
[15] = system: SR
[16] = system: PC-3
[17] = system: OVCAR-5
[18] = system: Hs-578T
[19] = system: M14
[20] = system: MDA-MB-231

| Compound | GI50 [1] | GI50 [2] | GI50 [3] | GI50 [4] | GI50 [5] | GI50 [6] | GI50 [7] | GI50 [8] | GI50 [9] | GI50 [10] | GI50 [11] | GI50 [12] [µM] | GI50 [13] | GI50 [14] | GI50 [15] | GI50 [16] | GI50 [17] | GI50 [18] | GI50 [19] | GI50 [20] |
| --- | --- | --- | --- | --- | --- | --- | --- | --- | --- | --- | --- | --- | --- | --- | --- | --- | --- | --- | --- | --- |
| CCOC(=O)c1c(-c2ccccc2)oc(=O)c(Cc2cccc3cccnc23)c1-c1ccccc1 | > 10 µM (inactive) | > 10 µM (inactive) | > 10 µM (inactive) | > 10 µM (inactive) | > 10 µM (inactive) | > 10 µM (inactive) | > 10 µM (inactive) | > 10 µM (inactive) | > 10 µM (inactive) | > 10 µM (inactive) | > 10 µM (inactive) | > 10 | > 10 µM (inactive) | > 10 µM (inactive) | > 10 µM (inactive) | 9.55 µM (inactive) | > 10 µM (inactive) | > 10 µM (inactive) | > 10 µM (inactive) | > 10 µM (inactive) |
| COC(=O)C1(Cc2ccccc2C)Cc2ccc(C)cc2C1=O (stereo not given) | 34.2 µM (inactive) | 48 µM (inactive) | 41.4 µM (inactive) | 19.5 µM (inactive) | 79.8 µM (inactive) | 15.6 µM (inactive) | 21.6 µM (inactive) | 20 µM (inactive) | 42.2 µM (inactive) | 45 µM (inactive) | 36.1 µM (inactive) | 27.4 | 28.6 µM (inactive) | 37.5 µM (inactive) | 13.9 µM (inactive) | 25.7 µM (inactive) | 89.7 µM (inactive) | 33.2 µM (inactive) | 37.2 µM (inactive) | 42.2 µM (inactive) |
| C=C1C(=O)O[C@@H]2C[C@@H](C)[C@@H]3[C@@H](OC4OC(COC(C)=O)C(O)C(O)C4O)CC(=O)[C@@]3(C)C[C@H]12 (stereo not given in full) | 11 µM (inactive) | 1.75 µM (inactive) | 1.87 µM (inactive) | 0.703 µM (active) | 2.15 µM (inactive) | 0.211 µM (active) | 0.902 µM (active) | 0.728 µM (active) | 0.596 µM (active) | 0.574 µM (active) | 0.508 µM (active) | 0.218 | 1.85 µM (inactive) | 2.42 µM (inactive) | 1.6 µM (inactive) | 10.3 µM (inactive) | 3.54 µM (inactive) | 25.2 µM (inactive) | 1.43 µM (inactive) | 4.36 µM (inactive) |
| COc1cc(OC)c(/C=C\c2ccnc3ccccc23)c(OC)c1 | 4.11 µM (inactive) | 9.31 µM (inactive) | 4.65 µM (inactive) | 1.98 µM (inactive) | 5.37 µM (inactive) | 0.347 µM (active) | 3.51 µM (inactive) | 0.569 µM (active) | 0.433 µM (active) | 3.62 µM (inactive) | 6.93 µM (inactive) | 0.794 | 2.39 µM (inactive) | 3.73 µM (inactive) | 0.689 µM (active) | 5.51 µM (inactive) | 6.05 µM (inactive) | 2.64 µM (inactive) | 3.4 µM (inactive) | 3.05 µM (inactive) |
| Cc1c2ncccc2c(C)c2c1[nH]c1ccc(O)cc12 | 6.68 µM (inactive) | 6.3 µM (inactive) | 1.4 µM (inactive) | 10.4 µM (inactive) | 13.5 µM (inactive) | 2.32 µM (inactive) | 4.54 µM (inactive) | 2.65 µM (inactive) | 3.44 µM (inactive) | 2.8 µM (inactive) | 3.32 µM (inactive) | 3.39 | 2.9 µM (inactive) | 6.55 µM (inactive) | 1.74 µM (inactive) | 2.76 µM (inactive) | 11.3 µM (inactive) | 1.08 µM (active) | 4.89 µM (inactive) | 4.93 µM (inactive) |
| CCOC(=O)C(NCc1cccc(C(F)(F)F)c1)(NC(=O)c1ccccc1)C(F)(F)F (stereo not given) | 27.2 µM (inactive) | 26.1 µM (inactive) | 24.2 µM (inactive) | 16.4 µM (inactive) | 22.1 µM (inactive) | 86.9 µM (inactive) | 27.2 µM (inactive) | 43.3 µM (inactive) | 26.7 µM (inactive) | 28.1 µM (inactive) | 14.4 µM (inactive) | 23.1 | 9.08 µM (inactive) | 24.2 µM (inactive) | > 100 µM (inactive) | 30.5 µM (inactive) | 71.1 µM (inactive) | 47.1 µM (inactive) | 27.8 µM (inactive) | 11.5 µM (inactive) |
| CC(OP(=O)(O)O)C(N)C(=O)O (stereo not given) | > 100 µM (inactive) | > 100 µM (inactive) | > 100 µM (inactive) | > 100 µM (inactive) | > 100 µM (inactive) | > 100 µM (inactive) | > 100 µM (inactive) | > 100 µM (inactive) | > 100 µM (inactive) | > 100 µM (inactive) | > 100 µM (inactive) | > 100 | > 100 µM (inactive) | > 100 µM (inactive) | > 100 µM (inactive) | > 100 µM (inactive) | > 100 µM (inactive) | > 100 µM (inactive) | > 100 µM (inactive) | > 100 µM (inactive) |
